Results reported in US6458351B2, “Naturally extracted and synthetic hypoglycemic or hypolipidemic compositions” (priority 1999, dated 2002).

Tests used:
[1] = system: yeast cells (Yeast strain Carlsbergensis); assay: Yeast fermentation assay (rate of CO2 production under anaerobic conditions); format: cell-based, S. carlsbergensis; conditions: synthetic chromium complexes; for Activity in yeast fermentation assay, CO2 production (in words): different concentrations
Experimental: The cells were kept on a solid chromium depleted medium that contained 6.7 g yeast nitrogen base, 20 g of glucose, and 18 g agar per liter. Cells were grown over night in a liquid medium without Cr. Yeast cells were harvested during stationary phase, washed twice and resuspended in 0.1M phosphate buffer pH 5.7. An aliquot of 3×10^8 cells/ml was anaerobically incubated at 30° C. in Warburg vessels in the presence of 10 mM glucose and the examined fraction of GTF extracted from yeast. Enhancement of fermentation rate by natural or synthetic chromium compounds was measured.
Yeast cells were grown over night in liquid medium without Cr. Yeast cells were harvested during stationary phase, washed twice and resuspended in 0.1M phosphate buffer pH 5.7. An aliquot of 3×10^7 cells/ml was anaerobically incubated at 30° C. in Warburg vessels in the presence of 10 mM glucose and the examined fractions extracted from Saltbush.
The activity of the synthetic chromium complexes was examined in the yeast fermentation assay as described above. All the complexes were tested by adding samples of the subject complex, and measuring the rate of CO2 production.

[2] = system: streptozoatocin diabetic rats; assay: Effect on insulin activity / blood glucose in streptozotocin diabetic rats; format: in vivo; conditions: single dose; insulin at marginal dose 0.005-0.025 mg/Kg body weight
Experimental: Sprague Dawly male rats weighing 120-130 g were injected subcutanously with a single dose of streptozotocin (60 mg/kg body weight) in 0.5 ml citrate buffer, 0.05 M pH 4.5. Plasma glucose concentrations were measured seven days later using commercial glucometer. Animals with blood glucose higher than 250 mg/dl were chosen for the subsequent test with fractions purified from yeast extract or the Saltbush, as described in section 5.1 and 5.2.
When a marginal dose of insulin (0.005-0.025 mg/Kg body weight ) was injected into streptozoatocin diabetic rats a decrease of 10%-15% in blood glucose was observed after the injection. A single dose of active chromium fraction extraction from yeast decreased blood glucose by 15%-20%. A combination of both insulin and chromium containing natural compound from yeast created much higher reduction in blood glucose of 40%-45% reduction.

Row | Compound | Activity in yeast fermentation assay, CO2 production (in words) [1] | Inhibition of yeast fermentation at high concentrations (in words) [1] | Decrease in blood glucose [2] | Activity in yeast fermentation assay, CO2 production (in words) ([1]; listed as Chromium axcorbate)
1 | N[C@@H](CCC(=O)N[C@@H](CS)C(=O)NCC(=O)O)C(=O)O.[Cr] [Cr-GSH, Chromium-Glutathione] | increases the production of CO2 | partial inhibition | – | –
2 | insulin | – | – | 10%-15% | –
3 | Chromium Ascorbate [Cr-Asc] | most active | without any inhibition | – | enhances the production of CO2
4 | CC(=O)N[C@@H](CS)C(=O)O.[Cr] [Cr-NAC, Chromium N-Acetyl Cysteine] | increases the production of CO2 | partial inhibition | – | –
